The subject of one series is MV-4-11 cells. Description: MV-4-11 (leukemia) cell proliferation assay (ATPlite). In kind it is cell-based. The conditions noted are these: Homo sapiens, MV4-11, read-out: Inhibition of Cell Proliferation IC50, MV-4-11. On the procedure: Compounds are assessed in a variety of cell based assays. For example BaF3 cells engineered with any of BCR-FMS, BCR-KIT, BCR-FLT3, BCR-NTRK1, BCR-NTRK2, and BCR-NTRK3, are used in cell proliferation assays to assess inhibitory activity of Fms, Kit, Flt-3, TrkA, TrkB, and TrkC, respectively. An MV-4-11 (leukemia) cell proliferation assay is used to assess inhibitory activity in Flt-3, and SKNSH (human neuroblastoma) cell proliferation assay is used to assess efficacy of Fms/Trk inhibitors. Additional cells may be assayed similarly to assess the efficacy of Fms/Trk inhibitors, such as MiaPaCa (human pancreatic cancer) and Capan-1 (human pancreatic carcinoma) cells. Reagent and assay conditions are as follows: • BaF3 cells: • Maintained in RPMI containing 10% FBS, 1% PenStrep, 1% NEAA, and 1% L-Glutamine, supplemented with 1 mg/mL G418 and 5% WEHI-CM (or recombinant murine IL-3). • Confluent cells are split 1:50 to 1:100 every 3-4 days. • MV-4-11 cells: • Maintained in Iscove's Modified Dulbecco's Medium containing 10% FBS. • Confluent cells are split 1:4 every 3-4 days. • SKNSH cells: RPMI containing 10% FBS. On day 1, cells are counted, then centrifuged in a conical tube for 5 minutes at 1000 rpm. The supernatant is removed and cells are re-suspended as follows: • BaF3: resuspend in growth media +1 mg/mL G418 (without WEHFIL-3) to 2×10^5 cells/mL. • MV-4-11: resuspend in growth media to 5×10^5 cells/mL. • SKNSH: resuspend in growth media to 2×10^4 cells/mL. The cells are plated (50 μL, 150 μL for SKNSH cells) in each well of a 96-well dish (Corning 3610) and incubated at 37° C. in 5% CO2 overnight, cells plated to a final concentration of cells as follows: • BaF3: 10,000 cells per well. • MV-4-11: 25,000 cells per well. • SKNSH: 3,000 cells per well. On day 2, compound at a maximum concentration of 5 mM is serially diluted 1:3 for a total of 8 point titration with DMSO as a control. A 1 μL aliquot of each dilution point is added to 249 μL growth media and 50 μL is added to a well containing cells, providing 10 μM compound for the maximum concentration point. The cells are incubated for 3 days at 37° C. in 5% CO2. For SKNSH cells, a 0.75 μL aliquot of appropriate dilution in DMSO is added to 150 μL of cells. On day 5, ATPlite 1 step Luminescence Assay System (Perkin Elmer #6016739) is brought to room temperature along with the cell cultures. ATPlite is added to each well as follows: • BaF3: 25 μL per well. • MV-4-11: 40 μL per well. • SKNSH: 20 μL per well. The cells are incubated at room temperature for 10 minutes, then luminescence is read on Safire reader. The measured luminescence correlates directly with cell number, such that the reading as a function of compound concentration is used to determine the IC50 value.
It is understood that the results of these assays may vary as assay conditions are varied. Inhibition levels determined under the conditions described herein represent a relative activity for the compounds tested under the specific conditions employed. The cell based assays are likely to show variability due to the complexity of the system and the sensitivity thereof to any changes in the assay conditions. […] Results for compounds that are tested and show substantially no inhibition below the highest tested concentration are represented as “-” in the tables below. In some instances, the compounds were not tested in all of the assays, or assay results were not valid, as indicated by NA in the tables below.
For orientation: Cellular ATP, detected with luciferase, serves as a proxy for viable cell number.

A short description of series [1]: Relative solubility by turbidity in aqueous buffers (pH 1.5, 4.5, 6.8, 7.4). The conditions noted are these: for turbidity threshold (L, M, H) 1.4: pH 1.5 (SGF); for turbidity threshold (L, M, H) 4.5: pH 4.5 (SIF); for turbidity threshold (L, M, H) 6.8: pH 6.8 (SIF); for turbidity threshold (L, M, H) 7.4: pH 7.4 (HEPES). In kind it is physicochemical. In short, it runs like this:
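Reported value: concentration at which optical density at 490, 535 and 650 nm passes 0.01, taken as the mean of the three wavelengths. Buffers were 0.5M NaCl pH 1.5, 0.05M NaH2PO4 pH 4.5 or 6.8, and 10 mM HEPES/150 mM NaCl pH 7.4, each receiving serial 1:1 DMSO dilutions of a 25 mM stock.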

Take `COc1ncnc2[nH]cc(Cc3ccc(Nc4ccc(C5CC5)nc4)nc3F)c12` [Compound P-4004, (6-Cyclopropyl-pyridin-3-yl)-[6-fluoro-5-(4-methoxy-7H-pyrrolo[2,3-d]pyrimidin-5-ylmethyl)-pyridin-2-yl]-amine]: in the series on MV-4-11 cells, the IC50 was less than 1 µM. Besides, in series [1], the “turbidity threshold (L, M, H) 1.4” value was “M (moderate solubility if the threshold concentration is 31.3 μM to 250 μM)”; the “turbidity threshold (L, M, H) 4.5” value is reported as “M (moderate solubility if the threshold concentration is 31.3 μM to 250 μM)”; the “turbidity threshold (L, M, H) 6.8” value is “L (low solubility if the threshold concentration is <31.3 μM)”; the “turbidity threshold (L, M, H) 7.4” value was “L (low solubility if the threshold concentration is <31.3 μM)”.
Take `CCOc1ccc(Nc2ccc(Cc3c[nH]c4ncnc(OC)c34)c(F)n2)cn1` [Compound P-4005, (6-Ethoxy-pyridin-3-yl)-[6-fluoro-5-(4-methoxy-7H-pyrrolo[2,3-d]pyrimidin-5-ylmethyl)-pyridin-2-yl]-amine]: the IC50 with MV-4-11 cells was less than 1 µM. In series [1], the “turbidity threshold (L, M, H) 1.4” value is “M (moderate solubility if the threshold concentration is 31.3 μM to 250 μM)”; the “turbidity threshold (L, M, H) 4.5” value is recorded as “L (low solubility if the threshold concentration is <31.3 μM)”; the “turbidity threshold (L, M, H) 6.8” value was “L (low solubility if the threshold concentration is <31.3 μM)”; the “turbidity threshold (L, M, H) 7.4” value is given as “L (low solubility if the threshold concentration is <31.3 μM)”.
With `CCOc1ccc(Nc2ccc(Cc3c[nH]c4ncnc(C)c34)c(F)n2)cn1` [Compound P-4006, (6-Ethoxy-pyridin-3-yl)-[6-fluoro-5-(4-methyl-7H-pyrrolo[2,3-d]pyrimidin-5-ylmethyl)-pyridin-2-yl]-amine], the IC50 in the series with MV-4-11 cells is less than 0.1 µM. Moreover, in series [1], the “turbidity threshold (L, M, H) 1.4” value is “H (high solubility if the threshold concentration is >250 μm)”; the “turbidity threshold (L, M, H) 4.5” value is listed as “L (low solubility if the threshold concentration is <31.3 μM)”; the “turbidity threshold (L, M, H) 6.8” value is “L (low solubility if the threshold concentration is <31.3 μM)”; the “turbidity threshold (L, M, H) 7.4” value is “L (low solubility if the threshold concentration is <31.3 μM)”.
Consider `CCc1ccc(Nc2ccc(Cc3c[nH]c4ncnc(OC)c34)c(F)n2)cn1` [Compound P-4007, (6-Ethyl-pyridin-3-yl)-[6-fluoro-5-(4-methoxy-7H-pyrrolo[2,3-d]pyrimidin-5-ylmethyl)-pyridin-2-yl]-amine], for which the IC50 in the series on MV-4-11 cells is less than 1 µM. In series [1], the “turbidity threshold (L, M, H) 1.4” value was “M (moderate solubility if the threshold concentration is 31.3 μM to 250 μM)”; the “turbidity threshold (L, M, H) 4.5” value is reported as “L (low solubility if the threshold concentration is <31.3 μM)”; the “turbidity threshold (L, M, H) 6.8” value was “L (low solubility if the threshold concentration is <31.3 μM)”; the “turbidity threshold (L, M, H) 7.4” value is recorded as “L (low solubility if the threshold concentration is <31.3 μM)”.
Take `CCOc1ccc(Nc2ccc(Cc3c[nH]c4ncnc(OCCOC)c34)c(F)n2)cn1` [Compound P-4008, (6-Ethoxy-pyridin-3-yl)-{6-fluoro-5-[4-(2-methoxy-ethoxy)-7H-pyrrolo[2,3-d]pyrimidin-5-ylmethyl]-pyridin-2-yl}-amine]: the IC50 in the series with MV-4-11 cells is less than 0.1 µM. For the same compound, in series [1], the “turbidity threshold (L, M, H) 1.4” value was “M (moderate solubility if the threshold concentration is 31.3 μM to 250 μM)”; the “turbidity threshold (L, M, H) 4.5” value was “M (moderate solubility if the threshold concentration is 31.3 μM to 250 μM)”; the “turbidity threshold (L, M, H) 6.8” value is reported as “M (moderate solubility if the threshold concentration is 31.3 μM to 250 μM)”; the “turbidity threshold (L, M, H) 7.4” value is “M (moderate solubility if the threshold concentration is 31.3 μM to 250 μM)”.
Take `CCc1ccc(Nc2ccc(Cc3c[nH]c4ncnc(C)c34)c(F)n2)cn1` [Compound P-4009, (6-Ethyl-pyridin-3-yl)-[6-fluoro-5-(4-methyl-7H-pyrrolo[2,3-d]pyrimidin-5-ylmethyl)-pyridin-2-yl]-amine]: the IC50 in the series on MV-4-11 cells was less than 0.1 µM. In series [1], the “turbidity threshold (L, M, H) 1.4” value is listed as “H (high solubility if the threshold concentration is >250 μm)”; the “turbidity threshold (L, M, H) 4.5” value is “M (moderate solubility if the threshold concentration is 31.3 μM to 250 μM)”; the “turbidity threshold (L, M, H) 6.8” value is reported as “L (low solubility if the threshold concentration is <31.3 μM)”; the “turbidity threshold (L, M, H) 7.4” value was “L (low solubility if the threshold concentration is <31.3 μM)”.
In the case of `COc1ncnc2[nH]cc(Cc3ccc(Nc4ccc(C)nc4)nc3F)c12` [Compound P-4010, [6-Fluoro-5-(4-methoxy-7H-pyrrolo[2,3-d]pyrimidin-5-ylmethyl)-pyridin-2-yl]-(6-methyl-pyridin-3-yl)-amine], in the series on MV-4-11 cells, the IC50 is less than 1 µM. Also, in series [1], the “turbidity threshold (L, M, H) 1.4” value was “H (high solubility if the threshold concentration is >250 μm)”; the “turbidity threshold (L, M, H) 4.5” value is given as “M (moderate solubility if the threshold concentration is 31.3 μM to 250 μM)”; the “turbidity threshold (L, M, H) 6.8” value is “L (low solubility if the threshold concentration is <31.3 μM)”; the “turbidity threshold (L, M, H) 7.4” value was “L (low solubility if the threshold concentration is <31.3 μM)”.
As to `CCn1cc(Nc2ccc(Cc3c[nH]c4ncnc(OC)c34)c(F)n2)cn1` [Compound P-4011, (1-Ethyl-1H-pyrazol-4-yl)-[6-fluoro-5-(4-methoxy-7H-pyrrolo[2,3-d]pyrimidin-5-ylmethyl)-pyridin-2-yl]-amine], the IC50 with MV-4-11 cells is less than 1 µM. In series [1], the “turbidity threshold (L, M, H) 1.4” value is on record as “M (moderate solubility if the threshold concentration is 31.3 μM to 250 μM)”; the “turbidity threshold (L, M, H) 4.5” value is recorded as “M (moderate solubility if the threshold concentration is 31.3 μM to 250 μM)”; the “turbidity threshold (L, M, H) 6.8” value is recorded as “M (moderate solubility if the threshold concentration is 31.3 μM to 250 μM)”; the “turbidity threshold (L, M, H) 7.4” value was “M (moderate solubility if the threshold concentration is 31.3 μM to 250 μM)”.
On to `CCOc1ncnc2[nH]cc(Cc3ccc(Nc4cnn(CC)c4)nc3F)c12` [Compound P-4012, [5-(4-Ethoxy-7H-pyrrolo[2,3-d]pyrimidin-5-ylmethyl)-6-fluoro-pyridin-2-yl]-(1-ethyl-1H-pyrazol-4-yl)-amine], for which the IC50 in the series on MV-4-11 cells was less than 1 µM. In addition, in series [1], the “turbidity threshold (L, M, H) 1.4” value is on record as “M (moderate solubility if the threshold concentration is 31.3 μM to 250 μM)”; the “turbidity threshold (L, M, H) 4.5” value is listed as “L (low solubility if the threshold concentration is <31.3 μM)”; the “turbidity threshold (L, M, H) 6.8” value was “L (low solubility if the threshold concentration is <31.3 μM)”; the “turbidity threshold (L, M, H) 7.4” value was “L (low solubility if the threshold concentration is <31.3 μM)”.
Turning to `CCn1cc(Nc2ccc(Cc3c[nH]c4ncnc(C)c34)c(F)n2)cn1` [Compound P-4013, (1-Ethyl-1H-pyrazol-4-yl)-[6-fluoro-5-(4-methyl-7H-pyrrolo[2,3-d]pyrimidin-5-ylmethyl)-pyridin-2-yl]-amine], the IC50 in the series with MV-4-11 cells is less than 1 µM. In series [1], the “turbidity threshold (L, M, H) 1.4” value is on record as “H (high solubility if the threshold concentration is >250 μm)”; the “turbidity threshold (L, M, H) 4.5” value was “M (moderate solubility if the threshold concentration is 31.3 μM to 250 μM)”; the “turbidity threshold (L, M, H) 6.8” value is recorded as “M (moderate solubility if the threshold concentration is 31.3 μM to 250 μM)”; the “turbidity threshold (L, M, H) 7.4” value was “M (moderate solubility if the threshold concentration is 31.3 μM to 250 μM)”.

The values above are taken from patent publication US8901118B2, “Compounds and methods for kinase modulation, and indications therefor” (Plexxikon Inc., priority 2010, dated 2014).
